# From patent US8889840B2, “Vascular leakage inhibitor” (Industry-Academic Cooperation Foundation, Yonsei University, priority 2009, dated 2014)
# How the values were obtained:
# [1] = test system: human retinal endothelial cells (HRECs); assay: Serum depletion-induced apoptosis of HRECs, MTT assay and cell morphology; assay type: cell-based; conditions: for ability of inhibiting apoptosis (MTT assay): 48 hours after treatment; for ability of protecting retinal vascular endothelial cells from apoptosis induced by the removal of serum (MTT): serum-free medium, 0.1-10 μg/mL
# Method: HRECs (3×10^4 cells/well) were seeded on a 24-well plate in M199 medium containing 20% fetal bovine serum. The next day, the cells were transferred to a medium containing […] Sac0601 (FIG. 4a) or 0.1-10 μg/mL Sac0504 (FIG. 4b). Cell viability was determined by MTT assay 48 hours later. FIGS. 5a-5c show the result of observing cell morphologies.
# Human umbilical vein endothelial cells (HUVECs) and human retinal endothelial cells (HRECs) purchased from Cell Systems (USA) were seeded on a 100-mm culture dish in M199 medium (Life Technologies, USA) containing 20% (w/v) fetal bovine serum (FBS, HyClone, Canada), 100 units/mL penicillin (Invitrogen, USA), 100 μg/mL streptomycin (invitrogen, USA), 3 ng/mL basic fibroblast growth factor (bFGF, Upstate Biotechnology, USA) and 5 units/mL heparin and cultured in a 5% CO2 incubator at 37° C.
# Also, HRECs were treated with the compounds synthesized in Synthesis Example 5 and MIT assay was performed 48 hours later in the same manner as described above.
# Also, the acid compound wherein the methyl ester formed by the introduction of the ester group was hydrolyzed was synthesized to provide improved water solubility and activity. MYT assay was performed for the compounds synthesized in Synthesis Example 6 in the same manner as described above 48 hours after treatment.
# Their ability of inhibiting apoptosis was confirmed again for HRECs. HRECs (3×10^4 cells/well) were seeded on a 24-well plate in M199 medium (1 mL) containing 20% fetal bovine serum, Next day, the cells were transferred to serum-free M199 medium containing 0.1-10 μg/ml. Sac060.1 (FIG. 4a) or 0.1-10 μg; mL Sac0504 (FIG. 4b). Cell viability was determined by MTF assay in the same manner as in Test Example 1.
# Their ability of inhibiting apoptosis was confirmed again for HRECs.
# [2] = test system: HRECs; assay: VEGF-induced actin stress fibers in HRECs, rhodamine phalloidin staining; assay type: cell-based, human; conditions: 10 μg/mL 1 hour, then 20 ng/mL VEGF 1 hour
# Method: Confluent HRECs were treated with 10 μg/mL Sac0601 or Sac0504 for 1 hour and then with 20 ng/mL VEGF for 1 hour. Subsequently, the cells were fixed at room temperature for 20 minutes with 4% paraformaldehyde and washed 3 times with PBS (pH 7.4). Then, the cells were permeabilized with 0.1% Triton X-100/PBS and reacted with 0.1 mg/mL rhodamine phalloidin (Molecular Probes) for 1 hour. Then, the cells were observed under a fluorescence microscope (Olympus). […] The analysis of actin cytoskeleton was conducted also for the compounds synthesized in Synthesis Example 5. Both Sac0904 and Sac0902 exerted effects in a concentration-dependent manner on the actin cytoskeleton which is closely related with vascular permeability (FIG. 7c).
# [3] = test system: diabetic mouse (DM) model; assay: Retinal vascular permeability in diabetic mouse (DM) model, FITC-dextran; assay type: in vivo, C57/BL6 mouse; conditions: streptozotocin diabetic mouse, 10 μg into the vitreous body, 24 hours
# Method: 10 μg of Sac0601 or 10 μg of Sac0504 was injected into the vitreous body of one eye of a diabetic mouse. 24 hours after the injection, 100 μL of FITC-dextran (30 mg/mL in filtered […]) was injected into the left ventricle. Then, the retina was observed under an optical microscope (FIG. 11a) and the fluorescence intensity was quantified (FIG. 11b).
# For in vivo analysis of the effect of the synthesized Rk1 derivatives on increased vascular permeability in diabetic retinopathy, a diabetic mouse (DM) model was made by injecting streptozotocin to C57/BL6 mouse. Sac 0601 or Sac 0504 (10 μg) was injected into the vitreous body of the mouse. 24 hours later, 40-kDa FITC-dextran (30 mg/mL in PBS, Sigma) was injected into the left ventricle. After waiting for about 2 minutes for circulation of the tracer, the eyes were taken out and fixed immediately in 4% PFA. Then, the retina was taken out and observed under an optical microscope.
# [4] = test system: HUVECs; assay: VEGF-induced actin stress fibers in HUVECs, rhodamine phalloidin staining; assay type: cell-based, human; conditions: 10 μg/mL pretreatment 1 hour, 20 ng/mL VEGF
# Method: Confluent HUVECs were pretreated with the compounds (10 μg/mL) for 60 minutes before treating with 20 ng/mL VEGF (1 hr). The cells were then stained with rhodamine phalloidin.
# It is known that the change in the actin structure of the cytoskeleton is closely related with the permeability of vascular endothelial cells. Increased permeability of vascular endothelial cells leads to increased formation of actin stress fibers and decrease of cortical actin ring structures. Based on this, the ability of inhibiting vascular endothelial permeability of the synthesized Rk1 derivatives was screened. Confluent HUVECs were pretreated with the synthesized compounds (10 μg/mL) for 1 hour before treating with 20 ng/mL VEGF (Upstate Biotechnology). Subsequently, the cells were fixed with 4% paraformaldehyde for 20 minutes at room temperature and washed 3 times with PBS (pH 7.4). Then, the cells were permeabilized with 0.1% Triton X-100/PBS and reacted with 0.1 mg/mL rhodamine phalloidin (Molecular Probes) for 1 hour. Then, the cells were observed under a fluorescence microscope (Olympus).
# [5] = test system: HRECs; assay: Permeability of HRECs on transwell filter, labelled sucrose; assay type: cell-based, human; conditions: 10 μg/mL 60 minutes, with or without 20 ng/mL VEGF
# Method: HRECs were seeded on a transwell filter. After reaching confluency, the cells were pretreated with Sac0601 (FIG. 10a) and Sac0504 (FIG. 10b) for 60 minutes before treating with 20 ng/ml. VEGF (1 hr). The permeability of HRECs was determined by measuring radiation of […] (1 μCi/μL) diffused below the transwell using a liquid scintillation counter.
# The effect of Sac0601 and Sac0504 on vascular permeability was analyzed. HRECs were seeded on a transwell filter (Corning Costar). After reaching confluency, the cells were cultured in M199 medium containing 1% FBS for 3 hours and treated with 10 μg/mL. Sac0601 (FIG. 10a) or Sac0504 (FIG. 10b) for 60 minutes, with or without pretreatment with 20 ng/mL VEGF for 60 minutes. Then, [^3H]sucrose (1 μCi [0.037 MBq.]/μL or 50 μL (0.8 μCi [0.0296 MBq])/mL, Amersham Pharmacia) were added. 30 minutes later, radiation diffused below the transwell was measured using a liquid scintillation counter (Wallac, PerkinElmer). Measurement was made at least four locations.
# [6] = test system: HRECs; assay: Stability of tight junctions (TJs) at cell-cell contacts in VEGF-treated HRECs, anti-occludin immunostaining; assay type: cell-based, human; conditions: 10 μg/mL 1 hour, then 20 ng/mL VEGF 1 hour
# Method: In FIG. 8a, confluent HRECs were pretreated with Sac0601 (panel A in FIG. 8a) or Sac0504 (panel B in FIG. 8a) for 60 minutes before treating with 20 ng/ml. VEGF (1 hr). The cells were then stained with occludin antibody.
# (§1) Confluent HRECs were treated with 10 μg/mL Sac0601 (FIG. 8a, panel A) or Sac0504 (FIG. 8a, panel B) for 1 hour and then with 20 ng/mL. VEGF for 1 hour. Subsequently, the cells were fixed at room temperature for 20 minutes with 4% paraformaldehyde and permeabilized with 0:1% Triton X-100/PBS. Then, the cells were incubated in PBS blocking solution containing 5% normal goat serum and 0.05% Tween-20. The cells were then reacted with anti-occludin antibody (Zymed Laboratories Inc.). The result was visualized with fluorescein-conjugated anti-mouse antibody (Vector Lab.). Also, western blotting was conducted for the cell lysate. The cell lysate was fractionated with SDS-PAGE and then transferred to polyvinyl difluoride membrane. The blocked membrane was reacted with anti-occludin antibody (Zymed Laboratories Inc.) and the immune response band was visualized with the chemiluminescence reagent obtained from Amersham Biosciences, Inc.
# [7] = test system: occludin; assay: Occludin western blotting of HREC lysate; assay type: cell-based, human; conditions: HRECs, pretreatment 60 minutes, then 20 ng/mL VEGF 1 hour
# Method: In FIG. 8b, confluent HRECs were pretreated with Sac0601 (10 μg/mL) for 60 minutes before treating with 20 ng/mL VEGF (1 hr). Then, cell lysate was subjected to western blotting using anti-occludin antibody.
# as §1
SMILES,ability of inhibiting apoptosis (MTT assay) [1],ability of protecting retinal vascular endothelial cells from apoptosis induced by the removal of serum (MTT) [1],formation of actin stress fibers induced by VEGF [2],formation of cortical actin ring structures [2],retinal vascular permeability induced in the DM [3],cortical actin ring structure [4],formation of actin stress fibers induced by VEGF [4],permeability of the vascular endothelial cells [5],ability of protecting the vascular endothelial cells ([1]; incl. observation of cell morphologies),redistribution of TJs into the cytoplasm or destabilizing at the cell membrane induced by VEGF [6],occludin (western blotting) [7]
CC(=O)OCC1OC(OC2CCC3(C)C(=CCC4C3CCC3(C)C4CCC3C(C)(O)CCCC(C)C)C2)C=CC1OC(C)=O (stereo not shown) [Sac0902],better ability of inhibiting apoptosis than Sac0601,showed the ability of protecting the vascular endothelial cells from apoptosis induced by the removal of serum in a concentration-dependent manner,inhibited the formation of actin stress fibers,increased the formation of cortical actin ring structures,only limitedly,increased the cortical actin ring structure,inhibited the formation of actin stress fibers induced by VEGF,,,,
CC(=O)OCC1OC(OC2CCC3(C)C(=CCC4C3CCC3(C)C(C(C)=CCCC(C)C)CCC43)C2)C=CC1OC(C)=O (stereo not shown) [Sac0904],better ability of inhibiting apoptosis than Sac0601,showed the ability of protecting the vascular endothelial cells from apoptosis induced by the removal of serum in a concentration-dependent manner,inhibited the formation of actin stress fibers,increased the formation of cortical actin ring structures,very effectively,increased the cortical actin ring structure,inhibited the formation of actin stress fibers induced by VEGF,,,,
COC(=O)CCC/C=C(\C)[C@H]1CCC2C3CC=C4C[C@@H](OC5C=C[C@H](OC(C)=O)[C@@H](COC(C)=O)O5)CC[C@]4(C)C3CC[C@@]21C (stereo partly shown) [Sac1004],improved ability of inhibiting apoptosis over SAC-0904,showed the ability of protecting the vascular endothelial cells from apoptosis induced by the removal of serum in a concentration-dependent manner,inhibited the formation of actin stress fibers,increased the formation of cortical actin ring structures,very effectively,increased the cortical actin ring structure,inhibited the formation of actin stress fibers induced by VEGF,inhibiting permeability of the vascular endothelial cells,improved ability of protecting the vascular endothelial cells over SAC-0904,could be inhibited,restores the activity of occludin decreased by VEGF
